Test results: US8232401B2 (Japan Tobacco Inc., priority 2002, dated 2012)
pIC50: −log10 of the molar value.

Target: T1, HIV integrase (Human immunodeficiency virus type 1 group M subtype B, UniProt P12497, F1332H)
T1 construct: HIV integrase full length gene; made in house; host or cells: Escherichia coli BL21(DE3)
Assay: Determination of enzyme (HIV integrase) inhibitory activity (strand transfer, microtiter plate, absorbance at 450 nm)
Format: biochemical, HIV (Human Immunodeficiency Virus (type 1))
Conditions: recombinant HIV integrase (F185H) expressed in E. coli; donor DNA on streptavidin plate, digoxigenin target DNA; 37° C.

| SMILES | pIC50 |
| --- | --- |
| O=C(O)c1cn([C@H](CO)C2CCCCC2)c2ccc(Cc3cccc(Cl)c3F)cc2c1=O [Example 4-18, (S)-6-(3-Chloro-2-fluorobenzyl)-1-(1-cyclohexyl-2-hydroxyethyl)-4-oxo-1,4-dihydroquinoline-3-carboxylic acid] | 8.70 |
| CC(C)Oc1cc2c(cc1Cc1cccc(Cl)c1F)c(=O)c(C(=O)O)cn2[C@H](CO)C(C)C [Example 4-19, (S)-6-(3-Chloro-2-fluorobenzyl)-1-(1-hydroxymethyl-2-methylpropyl)-7-isopropyloxy-4-oxo-1,4-dihydroquinoline-3-carboxylic acid] | 8.54 |
| CC(C)Oc1cc2c(cc1Cc1cccc(Cl)c1F)c(=O)c(C(=O)O)cn2[C@H](CO)C(C)(C)C [Example 4-20, (S)-6-(3-Chloro-2-fluorobenzyl)-1-[2,2-dimethyl-1-(hydroxymethyl)propyl]-7-isopropyloxy-4-oxo-1,4-dihydroquinoline-3-carboxylic acid] | 8.77 |
| CCOc1cc(Cc2cccc(Cl)c2F)cc2c(=O)c(C(=O)O)cn([C@@H](CC)CO)c12 [Example 4-21, (S)-6-(3-Chloro-2-fluorobenzyl)-8-ethoxy-1-[1-(hydroxymethyl)propyl]-4-oxo-1,4-dihydroquinoline-3-carboxylic acid] | 8.35 |
| O=C(O)c1cn([C@H](CO)CC2CCCCC2)c2ccc(Cc3cccc(Cl)c3F)cc2c1=O [Example 4-22, (S)-6-(3-Chloro-2-fluorobenzyl)-1-[2-cyclohexyl-1-(hydroxymethyl)ethyl]-4-oxo-1,4-dihydroquinoline-3-carboxylic acid] | 8.54 |
| CC(C)C[C@@H](CO)n1cc(C(=O)O)c(=O)c2cc(Cc3cccc(Cl)c3F)c(OC(C)C)cc21 [Example 4-23, (S)-6-(3-Chloro-2-fluorobenzyl)-1-(1-hydroxymethyl-3-methylbutyl)-7-isopropyloxy-4-oxo-1,4-dihydroquinoline-3-carboxylic acid] | 8.42 |
| CC(C)Oc1cc(Cc2cccc(Cl)c2F)cc2c(=O)c(C(=O)O)cn([C@H](CO)C(C)C)c12 [Example 4-24, (S)-6-(3-Chloro-2-fluorobenzyl)-1-(1-hydroxymethyl-2-methylpropyl)-8-isopropyloxy-4-oxo-1,4-dihydroquinoline-3-carboxylic acid] | 8.60 |
| CC(C)C[C@@H](CO)n1cc(C(=O)O)c(=O)c2cc(Cc3cccc(Cl)c3F)cc(OC(C)C)c21 [Example 4-25, (S)-6-(3-Chloro-2-fluorobenzyl)-1-(1-hydroxymethyl-3-methylbutyl)-8-isopropyloxy-4-oxo-1,4-dihydroquinoline-3-carboxylic acid] | 8.72 |
| CC(C)Oc1cc(Cc2cccc(Cl)c2F)cc2c(=O)c(C(=O)O)cn([C@H](CO)C(C)(C)C)c12 [Example 4-26, (S)-6-(3-Chloro-2-fluorobenzyl)-[2,2-dimethyl-1-(hydroxymethyl)propyl]-8-isopropyloxy-4-oxo-1,4-dihydroquinoline-3-carboxylic acid] | 8.82 |
| CC[C@H](C)[C@@H](CO)n1cc(C(=O)O)c(=O)c2cc(Cc3cccc(Cl)c3F)c(OC)cc21 [Example 4-27, 6-(3-Chloro-2-fluorobenzyl)-1-((1S,2S)-1-hydroxymethyl-2-methylbutyl)-7-methoxy-4-oxo-1,4-dihydroquinoline-3-carboxylic acid] | 8.54 |
| CCOc1cc2c(cc1Cc1cccc(Cl)c1F)c(=O)c(C(=O)O)cn2[C@H](CO)[C@@H](C)CC [Example 4-28, 6-(3-Chloro-2-fluorobenzyl)-7-ethoxy-1-((1S,2S)-1-hydroxymethyl-2-methylbutyl)-4-oxo-1,4-dihydroquinoline-3-carboxylic acid] | 8.57 |
| CC[C@@H](CO)n1cc(C(=O)O)c(=O)c2cc(Cc3cccc(Cl)c3F)c(SC)cc21 [Example 4-29, (S)-6-(3-Chloro-2-fluorobenzyl)-1-[1-(hydroxymethyl)propyl]-7-methylsulfanyl-4-oxo-1,4-dihydroquinoline-3-carboxylic acid] | 8.35 |
| CCOc1cc2c(cc1Cc1cccc(Cl)c1F)c(=O)c(C(=O)O)cn2[C@H](CO)C(C)C [Example 4-30, (S)-6-(3-Chloro-2-fluorobenzyl)-7-ethoxy-1-(1-hydroxymethyl-2-methylpropyl)-4-oxo-1,4-dihydroquinoline-3-carboxylic acid] | 8.54 |
| CCOc1cc2c(cc1Cc1cccc(Cl)c1F)c(=O)c(C(=O)O)cn2[C@H](CO)C(C)(C)C [Example 4-31, (S)-6-(3-Chloro-2-fluorobenzyl)-7-ethoxy-1-[2,2-dimethyl-1-(hydroxymethyl)propyl]-4-oxo-1,4-dihydroquinoline-3-carboxylic acid] | 8.68 |
| COc1cc2c(cc1Cc1cccc(Cl)c1F)c(=O)c(C(=O)O)cn2[C@H](CO)C(C)(C)C [Example 4-33, (S)-6-(3-Chloro-2-fluorobenzyl)-1-[2,2-dimethyl-1-(hydroxymethyl)propyl]-7-methoxy-4-oxo-1,4-dihydroquinoline-3-carboxylic acid] | 8.70 |
| COc1cc(Cc2cccc(Cl)c2F)cc2c(=O)c(C(=O)O)cn([C@H](CO)C(C)(C)C)c12 [Example 4-34, (S)-6-(3-Chloro-2-fluorobenzyl)-1-[2,2-dimethyl-1-(hydroxymethyl)propyl]-8-methoxy-4-oxo-1,4-dihydroquinoline-3-carboxylic acid] | 8.41 |
| CCC[C@@H](CO)n1cc(C(=O)O)c(=O)c2cc(Cc3cccc(Cl)c3F)c(OC(C)C)cc21 [Example 4-35] | 8.37 |
| CCC[C@@H](CO)n1cc(C(=O)O)c(=O)c2cc(Cc3cccc(Cl)c3F)c(OCC)cc21 [Example 4-36, (S)-6-(3-Chloro-2-fluorobenzyl)-7-ethoxy-1-[1-(hydroxymethyl)butyl]-4-oxo-1,4-dihydroquinoline-3-carboxylic acid] | 8.43 |
| CCOc1cc(Cc2cccc(Cl)c2F)cc2c(=O)c(C(=O)O)cn([C@H](CO)C(C)(C)C)c12 [Example 4-37, (S)-6-(3-Chloro-2-fluorobenzyl)-8-ethoxy-1-[2,2-dimethyl-1-(hydroxymethyl)propyl]-4-oxo-1,4-dihydroquinoline-3-carboxylic acid] | 8.72 |
| CCC[C@@H](CO)n1cc(C(=O)O)c(=O)c2cc(Cc3cccc(Cl)c3F)c(OC)cc21 [Example 4-38, (S)-6-(3-Chloro-2-fluorobenzyl)-1-[1-(hydroxymethyl)butyl]-7-methoxy-4-oxo-1,4-dihydroquinoline-3-carboxylic acid] | 8.48 |
| CC[C@H](C)[C@@H](CO)n1cc(C(=O)O)c(=O)c2cc(Cc3cccc(Cl)c3F)c(OC(C)C)cc21 [Example 4-39, 6-(3-Chloro-2-fluorobenzyl)-1-((1S,2S)-1-hydroxymethyl-2-methylbutyl)-7-isopropyloxy-4-oxo-1,4-dihydroquinoline-3-carboxylic acid] | 8.39 |
| CC(C)Oc1cc2c(cc1Cc1cccc(Cl)c1F)c(=O)c(C(=O)O)cn2[C@H](CO)C1CCCCC1 [Example 4-40, (S)-6-(3-Chloro-2-fluorobenzyl)-1-(1-cyclohexyl-2-hydroxyethyl)-7-isopropyloxy-4-oxo-1,4-dihydroquinoline-3-carboxylic acid] | 8.37 |
| CCOc1cc(Cc2cccc(Cl)c2F)cc2c(=O)c(C(=O)O)cn([C@H](CO)C3CCCCC3)c12 [Example 4-41, (S)-6-(3-Chloro-2-fluorobenzyl)-1-(1-cyclohexyl-2-hydroxyethyl)-8-ethoxy-4-oxo-1,4-dihydroquinoline-3-carboxylic acid] | 8.64 |
